Laboratory results reported in US20070105961A1, “1-Amino-alkylcyclohexanes as 5-HT3 and neuronal nicotinic receptor antagonists” (MERZ PHARMA GMBH & CO. KGAA, priority 2000, published 2007).
Where two headings read alike, the source gives them in different places.

Legend:
5-HT3 receptors = biological target: T1, 5-HT3 receptors (Mus musculus, UniProt P23979); assay: patch clamp, antagonism of serotonin-induced inward currents in N1E-115 cells; type: cell-based; settings: serotonin (10 μM) applied for 2 secs, read-out: 5HT3 IC50 against steady-state responses
T1 construct: against “steady-state” responses of N1E-115 cells to serotonin (10 μM); host or cells: N1E-115 cells
T1 sequence (P23979 24-489): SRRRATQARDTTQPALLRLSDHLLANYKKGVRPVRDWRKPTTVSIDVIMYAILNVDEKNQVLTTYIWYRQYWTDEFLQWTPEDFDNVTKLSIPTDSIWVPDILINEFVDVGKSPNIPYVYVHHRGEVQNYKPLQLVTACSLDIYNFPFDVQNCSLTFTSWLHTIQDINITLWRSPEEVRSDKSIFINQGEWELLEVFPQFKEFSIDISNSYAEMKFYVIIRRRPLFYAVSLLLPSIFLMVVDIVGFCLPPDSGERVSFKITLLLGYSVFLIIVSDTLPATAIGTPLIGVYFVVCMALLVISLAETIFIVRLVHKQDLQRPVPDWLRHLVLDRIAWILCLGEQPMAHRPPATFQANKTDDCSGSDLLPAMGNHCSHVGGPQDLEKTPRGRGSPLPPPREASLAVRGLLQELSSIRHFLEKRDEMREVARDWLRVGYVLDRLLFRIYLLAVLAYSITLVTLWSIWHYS
Experimental: N1E-115 cells were purchased from the European collection of cell cultures (ECACC, Salisbury, UK) and stored at −80° C. until further use. The cells were plated at a density of 100,000 cells cm^−2 onto plastic Petri dishes (Falcon) and were nourished with NaHCO3/HEPES-buffered minimum essential medium (MEM) supplemented with 15% foetal calf serum (Gibco) and incubated at 37° C. with 5% CO2 at 95% humidity. The medium was exchanged completely daily. Once every three days, cells were re-seeded onto fresh Petri dishes following treatment with trypsin-EDTA (1% in PBS), resuspension in MEM, and centrifugation at 1000 for 4 mins.
Patch clamp recordings were made from lifted cells, 2-3 days following seeding with polished glass electrodes (2-3 MΩ) in the whole cell mode at room temperature (20-22° C.) with an EPC-7 amplifier (List). Test substances were applied as for hippocampal cells. The contents of the intracellular solution were as follows (mM): CsCl (130), HEPES (10), EGTA (10), MgCl2 (2), CaCl2 (2), K-ATP (2), Tris-GTP (0.2), D-Glucose (10); pH was adjusted to 7.3 with CsOH or HCl. The extracellular solutions had the following basic composition (mM): NaCl (124), KCl (2.8), HEPES (10), pH 7.3 with NaOH or HCl.
Only results from stable cells were accepted for inclusion in the final analysis, i.e., showing at least 75% recovery of responses to agonist (serotonin or Ach) following removal of the antagonist tested. Despite this, recovery from drug actions wasn't always 100% because of rundown in some cells (<=10% over 10 mins). When present, this was always compensated by basing the % antagonism at each concentration on both control and recovery and assuming a linear time course for this rundown. All antagonists were assessed at steady-state blockade with 3 to 6 concentrations on at least 5 cells. Equilibrium blockade was achieved within 2 to 5 agonist applications, depending on antagonist concentration.
FIG. 1A and FIG. 1B show concentration-dependence of the blockade of 5HT3 receptors by MRZ 2/633 in cultured N1E-115 cells. Serotonin (10 μM) was applied for 2 seconds every 30 seconds in the continuous presence of various concentrations of MRZ 2/633 (1-10 μM).
B: Peak and steady-state (plateau) serotonin current responses were normalized to control levels and plotted as means (±SEM) against MRZ 2/633 concentration (n=8). Estimation of IC50s and curve fitting were made according to the 4 parameter logistic equation (GraFit, Erithacus Software).

[1] = biological target: T2, α7 neuronal nicotinic receptors (Rattus norvegicus, UniProt Q05941); assay: patch clamp, antagonism of Ach-induced inward currents in cultured hippocampal neurones; type: cell-based
T2 construct: against peak responses of cultured hippocampal neurones to Ach (1 mM) applied for 2 secs; endogenous in cells; host or cells: cultured rat embryonic hippocampal neurones
T2 sequence (Q05941 23-502): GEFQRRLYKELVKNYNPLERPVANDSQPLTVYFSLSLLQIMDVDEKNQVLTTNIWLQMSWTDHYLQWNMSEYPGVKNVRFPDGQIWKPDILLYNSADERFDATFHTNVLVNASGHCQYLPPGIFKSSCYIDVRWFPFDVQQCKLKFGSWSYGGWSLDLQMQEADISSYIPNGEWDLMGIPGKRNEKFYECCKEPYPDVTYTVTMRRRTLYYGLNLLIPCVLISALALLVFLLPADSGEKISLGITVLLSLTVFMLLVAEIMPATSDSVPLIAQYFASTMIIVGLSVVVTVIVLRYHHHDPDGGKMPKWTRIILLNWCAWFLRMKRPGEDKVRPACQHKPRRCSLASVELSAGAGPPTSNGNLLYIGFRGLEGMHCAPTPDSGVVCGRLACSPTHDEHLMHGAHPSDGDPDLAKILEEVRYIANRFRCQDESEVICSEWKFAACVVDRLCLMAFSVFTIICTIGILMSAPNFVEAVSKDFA

NMDA receptors [2] = biological target: T3, NMDA receptors; settings: rat cortical membranes, cited from earlier work
T3 construct: other: rat cortical membranes

NMDA receptors [3] = biological target: T4, NMDA receptors; settings: at −70 mV, cultured rat hippocampal neurones, cited from earlier work
T4 construct: PC NMDA (antagonism of NMDA-induced inward currents); other: at −70 mV, cultured rat hippocampal neurones; PC (PC NMDA, antagonism of NMDA-induced inward currents)

[4] = cultured hippocampal neurones, Ach (1 mM) applied for 2 secs, read-out: PC Ach IC50 against peak responses
[5] = read-out: [3H]MK (displacement of [3H]MK-801 binding), Table 3
[6] = read-out: [3H]MK- (displacement of [3H]MK-801 binding), Table 2
[7] = Table 2, read-out: PC NMDA (antagonism of NMDA-induced inward currents)
[8] = Table 3, read-out: PC (PC NMDA, antagonism of NMDA-induced inward currents)

Structure (SMILES)	IC50 [1, 4]	fold more effective as α7 neuronal nicotinic antagonist than as NMDA receptor antagonist ([1]; Table 3 and FIG. 4)	IC50 (5-HT3 receptors)	Ki (NMDA receptors [2]; [5])	Ki (NMDA receptors [2]; [6])	IC50 (NMDA receptors [3]; [7])	IC50 (NMDA receptors [3]; [8])	α7 neuronal nicotinic antagonism (in words) ([1]; hippocampal neurones)	IC50 [1]
C[C@@H]1CC(C)(C)C[C@@](C)(N)C1 (relative stereo) [MRZ 2/607, 1-Amino-1,3,3,5(trans)-tetramethylcyclohexane (axial amino group)]	–	–	22.3 µM	–	7.7 µM	13.8 µM	–	–	–
C[C@H]1CCC[C@](C)(N)C1 (relative stereo) [MRZ 2/625, 1-Amino-1,3(trans)-dimethylcyclohexane]	3.29 µM	–	–	49 µM	–	–	245 µM	–	–
CCC[C@H]1CCC[C@](C)(N)C1 (relative stereo) [MRZ 2/627, 1-Amino-1-methyl-3(trans)propylcyclohexane]	2.6 µM	–	–	67.3 µM	–	–	150 µM	–	–
CC[C@H]1CCC[C@](C)(N)C1 (relative stereo) [MRZ 2/629, 1-Amino-1-methyl-3(trans)ethylcyclohexane]	2.05 µM	–	–	46.7 µM	–	–	219 µM	–	–
CC[C@@H]1CC(C)(C)C[C@](C)(N)C1 (relative stereo) [MRZ 2/632, 1-Amino-1,3,3-trimethyl-5(cis)ethylcyclohexane]	–	–	2.4 µM	–	2.8 µM	6.4 µM	–	–	–
CC[C@@H]1CC(C)(C)C[C@@](C)(N)C1 (relative stereo) [MRZ 2/633, 1-Amino-1,3,3-trimethyl-5(trans)ethylcyclohexane]	–	–	7.7 µM	–	4.7 µM	13.9 µM	–	–	–
CCCC1(N)CC(C)(C)CC(C)(C)C1 [MRZ 2/601, 1-Amino-1-propyl-3,3,5,5-tetramethylcyclohexane]	–	–	1.3 µM	–	7.7 µM	10 µM	–	–	–
CC1(C)CCCC(C)(N)C1 (centres unmarked) [MRZ 2/621, 1-Amino-1,3,3-trimethylcyclohexane]	–	–	20.3 µM	30.6 µM	30.6 µM	92.4 µM	92.4 µM	–	0.65 µM
CNC1(C)CC(C)(C)CC(C)(C)C1 [MRZ 2/640, N-methyl-1-Amino-1,3,3,5.5-pentamethylcyclohexane]	–	–	10.8 µM	–	4.8 µM	14.6 µM	–	–	–
CC1(N)CCCCC1 [MRZ 2/641, 1-Amino-1-methylcyclohexane]	2.4 µM	–	–	136 µM	–	–	> 100 µM	–	–
CN(C)C1(C)CC(C)(C)CC(C)(C)C1 [MRZ 2/642, N,N-dimethyl-1-amino-1,3,3,5,5-pentamethylcyclohexane]	–	–	35.5 µM	10.7 µM	10.7 µM	42.5 µM	42.5 µM	–	1 µM
CC1(C)CC(C)(C)CC(C)(N2CCCC2)C1 [MRZ 2/705, N-(1,3,3,5,5-pentamethylcyclohexyl)pyrrolidine]	1.3 µM	16 fold	–	7.09 µM	–	–	20.8 µM	–	–

Continued, in another order:

IC50 [1, 4]	fold more effective as α7 neuronal nicotinic antagonist than as NMDA receptor antagonist ([1]; Table 3 and FIG. 4)	Structure (SMILES)	IC50 (5-HT3 receptors)	Ki (NMDA receptors [2]; [5])	Ki (NMDA receptors [2]; [6])	IC50 (NMDA receptors [3]; [7])	IC50 (NMDA receptors [3]; [8])	α7 neuronal nicotinic antagonism (in words) ([1]; hippocampal neurones)	IC50 [1]
2.21 µM	–	CCC1(C)CC(C)(C)CC(C)(N)C1 (mixture of isomers) [MRZ 2/615, 1-Amino-1,3,5,5-tetramethyl-3-ethylcyclohexane (mixture of diastereomers)]	2.5 µM	2.29 µM	2.29 µM	1.3 µM	2.9 µM	–	–
3.4 µM	–	CC1CC(C)CC(C)(N)C1 (mixture of isomers) [MRZ 2/616, 1-Amino-1,3,5-trimethylcyclohexane (mixture of diastereomers)]	38.7 µM	9.94 µM	10.4 µM	33.2 µM	33.2 µM	much more potent in this regard than previously reported for NMDA receptors	–
1.16 µM	–	CCCC1(C)CCCC(C)(N)C1 (mixture of isomers) [MRZ 2/617, 1-Amino-1,3-dimethyl-3-propylcyclohexane (mixture of diastereomers)]	–	36.1 µM	–	–	63.9 µM	–	–
30 µM	–	CC1(C)CC(C)(C)CC(C)(N)C1 [MRZ 2/579, 1-Amino-1,3,3,5,5-pentamethylcyclohexane]	1.7 µM	1.44 µM	1.4 µM	1.3 µM	1.3 µM	–	–
0.65 µM	–	CCCC1(C)CC(C)CC(C)(N)C1 (stereo not drawn) [MRZ 2/618, 1-Amino-1,3(trans),5(trans)-trimethyl-3(cis)-propylcyclohexane]	–	22.8 µM	–	–	57.5 µM	–	–
2.44 µM	–	CCC1(C)CCCC(C)(N)C1 (centres unmarked) [MRZ 2/620, 1-Amino-1,3-dimethyl-3-ethylcyclohexane]	–	24.2 µM	–	–	99 µM	–	–
